{"source": "patent US20230212584A1", "about": "“MEDICAMENT USED FOR TREATING CHOLANGIOCARCINOMA WITH KRAS MUTATIONS” (GENOMICARE BIOTECHNOLOGY (SHANGHAI) CO., LTD., priority 2022, published 2023)", "key": {"[1]": {"test_system": "KRAS-mutated cholangiocarcinoma cell line OZ", "assay": "Cell viability assay, CellTiter-Glo (CTG) method, OZ", "type": "cell-based", "settings": "1 μM Fulvestrant; 1 nM Estradiol; 168 hours; inhibition rate increased with concentration; FIG. 4", "experimental": "(§1) Fulvestrant was assayed for its anti-cholangiocarcinoma activity using the CTG method. The cell lines used were KRAS-mutated cholangiocarcinoma cell lines HUCCT1 and OZ, as well as KRAS wild-type cholangiocarcinoma cell line HCCC-9810. The efficacy of treatment by a medicament for cholangiocarcinoma was determined by comparing the difference in growth between KRAS-mutant-type group and wild-type group after treatment by a medicament. The specific steps were as follows:\n(§2) 1) Different experimental cell lines were sub-cultured into 96-well plates. 100 μL of PBS was added around the 96-well plates as a blank, where the cholangiocarcinoma cell lines used were HUCCT, OZ and HCCC-9810. The cells in the 96-well plates were cultured overnight at 37° C., 5% CO2 and 95% humidity.\n(§3) 2) The cell culture medium in the 96-well plate was discarded and 100 μL of phenol red-free RPMI1640 culture medium containing 5% Charcoal Stripped FBS was added.\n(§4) 3) The cells in the 96-well plate with the changed medium were cultured at 37° C., 5% CO2, 95% humidity for another 48 hours. […]\n(§5) 9) On the 11th day of the culture, CellTiter-Glo® reagent and medicament-treated cell culture plates were placed at room temperature for 30 minutes to equilibrate. […] Chemiluminescence values were read with EnVision®. […]"}, "[2]": {"test_system": "KRAS-mutated cholangiocarcinoma cell line HUCCT1", "assay": "Cell viability assay, CellTiter-Glo (CTG) method, HUCCT1", "type": "cell-based", "settings": "concentration higher than 2.5 μM; 1 nM Estradiol; 168 hours; lower inhibition rate than OZ; FIG. 4", "experimental": "as §1, §2, §3, §4, §5"}}, "data": [{"smiles": "C[C@]12CC[C@@H]3c4ccc(O)cc4C[C@@H](CCCCCCCCC[S+]([O-])CCCC(F)(F)C(F)(F)F)[C@H]3[C@@H]1CC[C@@H]2O", "note": "(some centres unmarked) [Fulvestrant]", "values": [{"measurement": "growth inhibition of OZ", "setting": "[1]", "value": "significant growth inhibition"}, {"measurement": "growth inhibition of HuCCT1", "setting": "[2]", "value": "significantly inhibited"}]}]}
